The values below come from patent US5451572A (Genentech, Inc., priority 1993, dated 1995).

Series [1] can be described thus: Reverse phase HPLC stability of liquid relaxin formulations. The note with it: in Milli-Q water at 5° C., reference material.
Experimental: All buffers were made up to isotonicity (0.154 μ) with the addition of NaCl. […] The resulting 135 100-μL-microvials and 90 1.5-ml-vials were placed on stability tests at 5, 25 and 40° C. Samples were assayed at 0, 7, 21, and 30 days by reverse phase HPLC, ELISA, and cyclic AMP assays. In addition to these assays, the samples were also assayed by near UV circular dichroism (near UV CD) and analytical ultracentrifugation (UC) on days 0 and 30.
The resulting nine samples were each sterile filtered, divided into three equal volumes, and loaded into sterile 300 μL glass microvials. The resulting 27 vials containing about 9 mg were placed on stability testing at 5, 25, and 40° C. for up to 40 days. Samples were assayed by an ELISA assay and a C4 reverse-phase HPLC assay on days 0, 7, 14, 28, and 40. The remaining 3 mg of relaxin was kept in Milli-Q water at 5° C. and used as the reference material. […] These observations were repeated on reference samples used in subsequent stability studies. […]
Study 1: The degradation of relaxin as a function of time was monitored by reverse phase HPLC. […] The fraction of the main peak remaining was computed from triplicate samples (when available), and first-order plots of the degradation kinetics of the main HPLG peak for the five formulations shown in Table I (ranging from 3.0 to 7.5) were determined. […]
For a further series, the system named is rabbit cervix. As to the kind of experiment: Efficacy on the ripening of the rabbit cervix. The note with it: initial study, 300 μg/ml topical formulation, 0.5 ml intravaginal, eighteen hours. The series is classed as in vivo. How it is done:
Mature pregnant female New Zealand rabbits weighing 4.5 to 6.0 kg were studied. […] Both hormones were applied intravaginally by means of a syringe and a catheter in a volume of 0.5 ml. Control animals received the vehicle alone. After 16-18 hours, the animals were sacrificed using a lethal dose of pentobarbital. […] Paraffin sections were cut and stained with hematoxylin/eosin and alcian blue PAS. Sections were evaluated for general morphology, and specifically for the degree of separation of muscular tissue and collagen fibrils in the submucosa and for the presence of characteristic PAS positive giant cells, which are multinucleate cells of macrophage origin that normally infiltrate the cervix during labor. The measurement of giant cells is accomplished using the procedure described by MacLennan et al., Am J. Obstet.

The subject of series [2] is cervix. The settings on record: 2-mg dose in methylcellulose gel; MacLennan et al. (1981); cited from earlier work.
Series [3] relates to cervix. The note with it: infusion of 3000 units in the cervical os; Perezgrovas and Anderson (1982); cited from earlier work.

With `CC[C@H](C)[C@@H]1NC(=O)[C@H](C)NC(=O)[C@H]([C@@H](C)CC)NC(=O)[C@H](CCC(N)=O)NC(=O)[C@H](C)NC(=O)[C@H](CCCNC(=N)N)NC(=O)[C@H](C(C)C)NC(=O)[C@H](CC(C)C)NC(=O)[C@H](CCC(=O)O)NC(=O)[C@H](CCCNC(=N)N)NC(=O)CNC(=O)[C@@H](NC(=O)[C@H](CC(C)C)NC(=O)[C@H](CCCCN)NC(=O)[C@@H](NC(=O)[C@@H](NC(=O)[C@H](CCC(=O)O)NC(=O)[C@H](CCC(=O)O)NC(=O)[C@H](CCSC)NC(=O)[C@H](Cc2c[nH]c3ccccc23)NC(=O)[C@H](CO)NC(=O)[C@@H](N)CC(=O)O)C(C)C)[C@@H](C)CC)CSSC[C@@H]2NC(=O)[C@@H](NC(=O)[C@H](CCCCN)NC(=O)[C@H](CC(N)=O)NC(=O)[C@H](C)NC(=O)[C@H](CC(C)C)NC(=O)[C@H](C)NC(=O)[C@H](CO)NC(=O)[C@H](Cc3ccc(O)cc3)NC(=O)[C@H](CC(C)C)NC(=O)[C@@H]3CCC(=O)N3)CSSC[C@H](NC(=O)CNC(=O)[C@H](C(C)C)NC(=O)[C@H](Cc3c[nH]cn3)NC2=O)C(=O)N[C@@H]([C@@H](C)O)C(=O)N[C@@H](CCCCN)C(=O)N[C@@H](CCCNC(=N)N)C(=O)N[C@@H](CO)C(=O)N[C@@H](CC(C)C)C(=O)N[C@@H](C)C(=O)N[C@@H](CCCNC(=N)N)C(=O)N[C@@H](Cc2ccccc2)C(=O)N[C@H](C(=O)O)CSSC[C@@H](C(=O)NCC(=O)N[C@@H](CCSC)C(=O)N[C@@H](CO)C(=O)N[C@H](C(=O)N[C@@H](Cc2c[nH]c3ccccc23)C(=O)N[C@@H](CO)C(=O)N[C@@H](CCCCN)C(=O)N[C@@H](CCCNC(=N)N)C(=O)N[C@@H](CO)C(=O)N[C@@H](CC(C)C)C(=O)O)[C@@H](C)O)NC1=O` [long relaxin], the “stability by reverse phase HPLC” value in series [1] is on record as “stable by reverse phase HPLC for at least five months”.
On to porcine relaxin, for which, in the series on rabbit cervix, the “morphology of the pregnant cervix (ripening)” value is given as “induce changes in the morphology of the pregnant cervix consistent with ripening”. In the series on cervix [2], the cervical score result was “improve the cervical score”. The “time to increased dilatation of the cervix” value with cervix [3] was no more than 8 h.
